The values below come from patent publication US20090099212A1, “A3 ADENOSINE RECEPTOR ANTAGONISTS” (priority 2007, published 2009).

In one assay the target is T1, A3 adenosine receptor (Homo sapiens, UniProt P0DMS8).
T1 construct: expressed in transfected cells; host or cells: HEK-293 or CHO cells (HEK-A3 or CHO-A3), membranes
T1 sequence (P0DMS8 1-318): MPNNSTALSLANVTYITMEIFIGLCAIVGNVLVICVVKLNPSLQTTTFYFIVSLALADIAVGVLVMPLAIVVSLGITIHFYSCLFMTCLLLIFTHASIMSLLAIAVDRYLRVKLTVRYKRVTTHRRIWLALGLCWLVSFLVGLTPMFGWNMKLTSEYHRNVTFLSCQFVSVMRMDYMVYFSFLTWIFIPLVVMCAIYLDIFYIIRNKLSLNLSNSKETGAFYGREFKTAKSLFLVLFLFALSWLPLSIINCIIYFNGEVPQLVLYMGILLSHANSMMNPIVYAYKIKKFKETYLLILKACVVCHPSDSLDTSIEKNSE
In words: Radioligand binding competition, A3 AdoR (125I-AB-MECA), membranes of HEK-A3 or CHO-A3 cells. How it is done: The cDNAs for human A1, A2A, A2B or A3 AdoRs were prepared by RT-PCR from total RNA of human cells or tissues and sequenced on both strands. The expression vector containing each of these cDNAs and a second vector containing a neomycin or puromycin-resistance gene were introduced to HEK-293 or CHO cells by Lipofectin-Plus (Life Technology). Colonies were selected by growing transfected cells in the presence of neomycin or puromycin. Stably transfected cells were maintained in Dulbecco's modified Eagle's medium (DMEM) or F-12 medium with 10% fetal bovine serum, 100 μg/ml penicillin, 100 μg/ml streptomycin and appropriate concentrations of neomycin or puromycin. These stably transfected cells were referred to as HEK-“AdoR” or CHO-“AdoR” depending on the receptors that they express. For example, cells that were transfected with A3 AdoRs were referred to as HEK-A3 or CHO-A3.
Monolayers of transfected cells were washed with phosphate buffered saline (PBS) and harvested in a buffer containing 10 mM HEPES (pH 7.4), 10 mM EDTA and protease inhibitors. The cells were homogenized in polytron for 1 minute at setting 4 and centrifuged at 29000 g for 15 minutes at 4° C. The cell pellets were washed with a buffer containing 10 mM HEPES (pH7.4), 1 mM EDTA and protease inhibitors, and were resuspended in the same buffer supplemented with 10% sucrose. Frozen aliquots were kept at −80° C.
The affinities of compounds for A1, A2A, A2B or A3 AdoRs were determined in competition studies using radioligands such as ^3H-CPX (A1 antagonist), or ^3H-CCPA (A1 agonist), ^3H-ZM241385 (A2A antagonist) or ^3H-CGS21680 (A2A agonist), ^3H-ZM241385 (A2B antagonist) or ^125I-AB-MECA (A3 agonist) and membranes of corresponding transfected cells. For example, to determine the affinity for A3 AdoRs, the competition assays were started by mixing 0.2 nM ^125I-AB-MECA with various concentrations of test compounds and 25 ug membrane proteins of HEK-A3 or CHO-A3 in TEM buffer (50 mM Tris, 1 mM EDTA and 10 mM MgCl2) supplemented with 1 U/ml adenosine deaminase. The assays were incubated for 90 minutes, stopped by filtration onto GF/B filter plates using Packard Harvester and washed four times with ice-cold TM buffer (10 mM Tris, 1 mM MgCl2, pH 7.4). The amounts of radioligands that bound to the GF/B filter plates were determined by scintillation counting. Nonspecific binding was determined in the presence of 10 μM R-PIA (phenylisopropyladenosine) or 1 μM IB-MECA. Bmax and KD values were calculated using GraphPad software.

Another assay concerns the target T2, A1 adenosine receptor (Homo sapiens, UniProt P30542).
T2 construct: expressed in transfected cells; host or cells: HEK-293 or CHO cells, membranes
T2 sequence (P30542 1-326): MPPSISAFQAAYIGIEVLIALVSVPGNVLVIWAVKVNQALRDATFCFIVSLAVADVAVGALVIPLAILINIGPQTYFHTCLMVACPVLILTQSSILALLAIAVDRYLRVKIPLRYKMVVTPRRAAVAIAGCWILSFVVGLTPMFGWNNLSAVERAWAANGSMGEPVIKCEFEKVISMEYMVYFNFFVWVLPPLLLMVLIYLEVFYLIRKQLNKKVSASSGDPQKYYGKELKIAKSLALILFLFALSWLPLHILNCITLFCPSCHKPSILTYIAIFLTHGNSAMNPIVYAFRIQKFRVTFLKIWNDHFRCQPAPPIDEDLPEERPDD
The experiment in a line: Radioligand binding competition, A1 AdoR (3H-CPX or 3H-CCPA), membranes of transfected cells. Conditions: Table 2. On the procedure:
(§1) The cDNAs for human A1, A2A, A2B or A3 AdoRs were prepared by RT-PCR from total RNA of human cells or tissues and sequenced on both strands. The expression vector containing each of these cDNAs and a second vector containing a neomycin or puromycin-resistance gene were introduced to HEK-293 or CHO cells by Lipofectin-Plus (Life Technology). Colonies were selected by growing transfected cells in the presence of neomycin or puromycin. Stably transfected cells were maintained in Dulbecco's modified Eagle's medium (DMEM) or F-12 medium with 10% fetal bovine serum, 100 μg/ml penicillin, 100 μg/ml streptomycin and appropriate concentrations of neomycin or puromycin. […]
(§2) The affinities of compounds for A1, A2A, A2B or A3 AdoRs were determined in competition studies using radioligands such as ^3H-CPX (A1 antagonist), or ^3H-CCPA (A1 agonist), ^3H-ZM241385 (A2A antagonist) or ^3H-CGS21680 (A2A agonist), ^3H-ZM241385 (A2B antagonist) or ^125I-AB-MECA (A3 agonist) and membranes of corresponding transfected cells. […] The amounts of radioligands that bound to the GF/B filter plates were determined by scintillation counting. Nonspecific binding was determined in the presence of 10 μM R-PIA (phenylisopropyladenosine) or 1 μM IB-MECA. Bmax and KD values were calculated using GraphPad software.

A further assay deals with T3, A2A adenosine receptor (Homo sapiens, UniProt P29274).
T3 construct: expressed in transfected cells; host or cells: HEK-293 or CHO cells, membranes
The experiment in a line: Radioligand binding competition, A2A AdoR (3H-ZM241385 or 3H-CGS21680), membranes of transfected cells. To be noted: Table 2. On the procedure: as §1, §2

[1] abbreviates: Table 1, 0.2 nM 125I-AB-MECA, HEK-A3 or CHO-A3 membranes.
Setting [2] is: Table 2, 125I-AB-MECA competition.

T3 sequence (P29274 whole entry): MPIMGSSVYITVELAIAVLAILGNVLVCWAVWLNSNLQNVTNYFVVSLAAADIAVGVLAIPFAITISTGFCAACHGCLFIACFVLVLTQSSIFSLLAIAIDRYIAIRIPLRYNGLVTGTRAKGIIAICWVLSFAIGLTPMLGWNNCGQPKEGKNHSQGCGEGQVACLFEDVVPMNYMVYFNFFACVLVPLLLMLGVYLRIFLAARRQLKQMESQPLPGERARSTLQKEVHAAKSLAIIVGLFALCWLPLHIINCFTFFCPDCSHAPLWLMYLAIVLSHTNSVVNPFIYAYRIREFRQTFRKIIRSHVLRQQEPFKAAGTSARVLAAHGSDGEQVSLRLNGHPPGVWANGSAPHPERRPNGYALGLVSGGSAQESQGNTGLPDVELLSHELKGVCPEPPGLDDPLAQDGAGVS

What is called Ki is the dissociation constant of the complex between target and ligand, obtained from inhibition or displacement. For `CCn1c(-n2cc(C)cn2)nc2c(NC(=O)C(C)(C)C)nc(NCc3ccccc3)nc21` [N-{9-ethyl-8-(4-methylpyrazolyl)-2-[benzylamino]purin-6-yl}-2,2-dimethylpropanamide], on A3 adenosine receptor (setting [1]), the affinity corresponds to a Ki of 18.6 nM.
Still for that read-out and setting: to “(6-amino-9-propyl-8-pyrazolylpurin-2-yl)[2-(4-fluorophenyl)ethyl]amine” belongs 210 nM; to “N-{2-[(2-phenylethyl)amino]-9-propyl-8-pyrazolylpurin-6-yl}[3-(trifluoromethyl)phenyl]carboxamide”, 910 nM.
In the case of “((1S)-1-phenylethyl)[6-amino-8-(4-methylpyrazolyl)-9-propylpurin-2-yl]amine”, the Ki on A3 adenosine receptor (setting [2]) was 0.9 nM.
On A3 adenosine receptor (setting [1]), `CCn1c(-n2cccn2)nc2c(N)nc(NCc3ccccc3)nc21` [(6-amino-9-ethyl-8-pyrazolylpurin-2-yl)benzylamine] registered an inhibition constant (Ki) of 7 nM.
Same read-out and setting: to “(6-amino-9-propyl-8-pyrazolylpurin-2-yl)[2-(3-fluorophenyl)ethyl]amine” belongs 82 nM; to “N-{2-[(2-phenylethyl)amino]-9-propyl-8-pyrazolylpurin-6-yl}[4-(trifluoromethyl)phenyl]carboxamide”, 3120 nM; to “(6-amino-9-propyl-8-pyrazolylpurin-2-yl)(2-phenylethyl)amine”, 52 nM.
As to “N-{9-ethyl-2-[benzylamino]-8-pyrazolylpurin-6-yl}-2-methoxyacetamide”, the Ki was found to be 3950 nM on A1 adenosine receptor, 3 nM at A3 adenosine receptor (setting [1]) and 3 nM on A3 adenosine receptor (setting [2]).
Consider `CCn1c(-n2cc(C)cn2)nc2c(N)nc(NCc3ccccc3)nc21` [[6-amino-9-ethyl-8-(4-methylpyrazolyl)purin-2-yl]benzylamine], for which the inhibitory constant (Ki) on A2A adenosine receptor was 2040 nM; at A1 adenosine receptor, 225 nM; at A3 adenosine receptor (setting [1]), 2 nM.
With “(6-amino-9-propyl-8-pyrazolylpurin-2-yl)[2-(2,5-dimethoxyphenyl)ethyl]amine”, affinity on A3 adenosine receptor (setting [1]) was put at a Ki of 112 nM. In other words, the sub-micromolar range.
Take `CCn1c(-n2cc(-c3cccc(C(F)(F)F)c3)cn2)nc2c(N)nc(NCc3ccccc3)nc21` [(6-amino-9-ethyl-8-{4-[3-(trifluoromethyl)phenyl]pyrazolyl}purin-2-yl)benzylamine]: on A3 adenosine receptor (setting [1]), affinity was put at a Ki of 1480 nM.
